How the values were obtained:
DA-autoreceptors = assay: Inhibition of spontaneous locomotor activity (motility inhibition) in rats; assay type: in vivo, rat (Wistar); conditions: doses calculated as the free amine
DA-receptor = assay: Contralateral circling in rats with unilateral 6-hydroxy-DA (6-OHDA) lesions; as to 6-OHDA Contr. Circle. rats (sc) Duration: test concentration or dose not given here; assay type: in vivo, rat (Wistar); conditions: 6-OHDA-lesioned rats; for 6-OHDA Contr. Circle. rats (sc) ED50: doses calculated as the free amine; for 6-OHDA Contr. Circle. rats (sc) Duration: duration given instead of ED50
Experimental: Furthermore, the potency of the drug to induce contralateral circling behaviour in 6-hydroxy-DA-lesioned rats was determined. The specificity of this receptor resembles that of the […] DA receptors mediating motility inhibition.
The experiments were made according to published methods, using rats of the Wistar strain.
Therefore, also the ability of a test compound to induce contralateral circling in rats with unilateral 6-hydroxy-DA lesions was evaluated (loc cit.).

Compound | Motility Inh. rats (sc) ED50 (DA-autoreceptors) [µmol/kg] | 6-OHDA Contr. Circle. rats (sc) ED50 (DA-receptor) [µmol/kg] | 6-OHDA Contr. Circle. rats (sc) Duration (DA-receptor) [h]
CCCN(CCC)CC1COc2ccc(O)cc21 (single isomer, unassigned; (+)) [Lu 24-122, (+)-5-hydroxy-2,3-dihydro-N,N-dipropyl-3-benzofuranmethylamine] | 0.81 | 0.16 | –
CCCN(CCC)CC1CCc2ccc(OC)cc21 (stereo not drawn) [Lu 21-097, N,N-dipropyl-6-methoxy-1-indanmethylamine] | > 14 | > 14 | –
CCCNCC1CCc2ccc(O)cc21 (stereo not drawn) [Lu 21-138, 6-Hydroxy-N-propyl-1-indanmethylamine] | 19 | 10 | –
CCCCN(CCCC)CC1CCc2ccc(O)cc21 (stereo not drawn) [Lu 22-028, N,N-Dibutyl-6-hydroxy-1-indanmethylamine] | 13 | > 14 | –
CCN(CC)CC1CCc2ccc(OC(=O)C(C)(C)C)cc21 (stereo not drawn) [Lu 23-020, 6-pivaloyloxy-N,N-diethyl-1-indanmethylamine] | 0.84 | 0.33 | –
CCCN(CCC)CC1CCc2ccc(OC(=O)c3ccccc3C)cc21 (stereo not drawn) [Lu 24-028] | – | – | 18
CCCN(CCC)CC1CCc2ccc(OC(=O)c3c(F)cccc3F)cc21 (stereo not drawn) [Lu 24-029, 6-(2,6-Difluorbenzoyloxy)-N,N-dipropyl-1-indanmethylamine] | – | – | 4
CCCN(CCC)CC1CCc2ccc(OC(=O)c3ccccc3OC)cc21 (stereo not drawn) [Lu 24-030, 6-(2-methoxybenzoyloxy)-N,N-dipropyl-1-indanmethylamine] | – | – | 4
CCCN(CCC)CC1CCc2ccc(OC(=O)c3ccccc3Cl)cc21 (stereo not drawn) [Lu 24-031, 6-(2-chlorobenzoyloxy)-N,N-dipropyl-1-indanmethylamine] | – | – | 4
CCCN(CCC)CC1CCc2ccc(OC(=O)c3ccccc3OC(C)=O)cc21 (stereo not drawn) [Lu 24-032, 6-(2-acetyloxybenzoyloxy)-N,N-dipropyl-1-indanmethylamine] | – | – | 4
CCCN(CCC)CC1CCc2ccc(OC(=O)c3ccccc3F)cc21 (stereo not drawn) [Lu 24-033, 6-(2-fluorbenzoyloxy)-N,N-dipropyl-1-indanmethylamine] | – | – | 4
CCCN(CCC)CC1COc2ccc(OC(=O)C(C)(C)C)cc21 (stereo not drawn) [Lu 24-042, 5-Pivaloyloxy-2,3-dihydro-N,N-dipropyl-3-benzofuranmethylamine] | – | 0.40 | –
CCCN(CCC)CC1COc2ccc(OC(=O)c3ccccc3C)cc21 (stereo not drawn) [Lu 24-074, 5-(2-Methylbenzoyloxy)-2,3-dihydro-N,N-dipropyl-3-benzofuranmethylamine] | – | – | 15
CCCN(CCC)CC1COc2ccc(OC(=O)NC(C)C)cc21 (stereo not drawn) [Lu 25-158, 5-isopropylaminocarbonyloxy-2,3-dihydro-N,N-dipropyl-3-benzofuranmethylamine] | – | – | 4
CCCN(CCC)CC1COc2ccc(OC(=O)c3ccccc3N)cc21 (stereo not drawn) [Lu 25-165, 5-(2-aminobenzoyloxy)-2,3-dihydro-N,N-dipropyl-3-benzofuranmethylamine] | – | – | > 6
CCN(CC)CC1CCc2ccc(OC(=O)Nc3ccc(C(C)C)cc3)cc21 (stereo not drawn) [Lu 25-177, 6-(4-isopropylphenylaminocarbonyloxy)-N,N-diethyl-1-indanmethylamine] | – | – | > 6

— patent US4847254A, “CNS affecting 5-oxy-3-aminomethyl-dihydro-benzofurans and benzothiophenes” (H. Lundbeck A/S, priority 1987, dated 1989)
